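Cells were grown in 96-well plates and exposed to each compound for 48 hours at five concentrations; endpoints were interpolated linearly between bracketing concentrations, or set to the highest concentration if not reached. TGI: concentration producing complete growth inhibition.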
Test system: BT-549 breast
Assay: DTP human tumour cell line panel, 48 h

NP(=O)(Oc1c2occc2cc2ccc(=O)oc12)N(CCCl)CCCl (stereo not drawn) and C=CC(CCc1ccc(C(=O)OCC)cc1)c1c(N)nc(N)[nH]c1=O (stereo not drawn) cannot be ordered by TGI: greater than 100 µM for the first, greater than 100 µM for the second.

CCOC(=O)c1nc2ccc(C(F)(F)F)cc2nc1NCc1cc(OC)c(OC)c(OC)c1 and CCOP(C)(=O)C(N)Cc1ccc(OC)c(OC)c1 (stereo not drawn) cannot be ordered by TGI: greater than 100 µM for the first, greater than 100 µM for the second.

CC(C)(C)OC(=O)NC(Cc1ccc(OCc2ccccc2)cn1)C(=O)N1CCCCC1 (stereo not drawn) and O=C1CC(=Nc2ccc(Cl)cc2)C(c2ccccc2)N1c1ccccc1 (stereo not drawn) are within 1.5-fold of each other in TGI: 60.7 µM for the first, 41.6 µM for the second.

CCOC(=O)/C=C(/C(=O)OCC)n1ccc(=O)n(Cc2cn(COCCOC(C)=O)nn2)c1=O showed a TGI of 30.4 µM.

Test system: NCI-H226 lung
Assay: DTP human tumour cell line panel, 48 h

NP(=O)(Oc1c2occc2cc2ccc(=O)oc12)N(CCCl)CCCl (stereo not drawn) and C=CC(CCc1ccc(C(=O)OCC)cc1)c1c(N)nc(N)[nH]c1=O (stereo not drawn) cannot be ordered by TGI: greater than 100 µM for the first, greater than 100 µM for the second.

CCOC(=O)c1nc2ccc(C(F)(F)F)cc2nc1NCc1cc(OC)c(OC)c(OC)c1 and CCOP(C)(=O)C(N)Cc1ccc(OC)c(OC)c1 (stereo not drawn) cannot be ordered by TGI: greater than 100 µM for the first, greater than 100 µM for the second.

First: CCOC(=O)/C=C(/C(=O)OCC)n1ccc(=O)n(Cc2cn(COCCOC(C)=O)nn2)c1=O
Second: O=C1CC(=Nc2ccc(Cl)cc2)C(c2ccccc2)N1c1ccccc1 (stereo not drawn)
The TGI of the first is higher: greater than 100 µM for the first, 85.7 µM for the second.

Test system: EKVX NSCLC
Assay: DTP human tumour cell line panel, 48 h

NP(=O)(Oc1c2occc2cc2ccc(=O)oc12)N(CCCl)CCCl (stereo not drawn) and CCOP(C)(=O)C(N)Cc1ccc(OC)c(OC)c1 (stereo not drawn) cannot be ordered by TGI: greater than 100 µM for the first, greater than 100 µM for the second.

Going from CCOC(=O)c1nc2ccc(C(F)(F)F)cc2nc1NCc1cc(OC)c(OC)c(OC)c1 to CCOC(=O)/C=C(/C(=O)OCC)n1ccc(=O)n(Cc2cn(COCCOC(C)=O)nn2)c1=O, the TGI falls from greater than 100 µM to 30.6 µM.

CC(C)(C)OC(=O)NC(Cc1ccc(OCc2ccccc2)cn1)C(=O)N1CCCCC1 (stereo not drawn) and O=C1CC(=Nc2ccc(Cl)cc2)C(c2ccccc2)N1c1ccccc1 (stereo not drawn) cannot be ordered by TGI: greater than 100 µM for the first, greater than 100 µM for the second.

Test system: TK-10 renal
Assay: DTP human tumour cell line panel, 48 h

NP(=O)(Oc1c2occc2cc2ccc(=O)oc12)N(CCCl)CCCl (stereo not drawn) and C=CC(CCc1ccc(C(=O)OCC)cc1)c1c(N)nc(N)[nH]c1=O (stereo not drawn) cannot be ordered by TGI: greater than 100 µM for the first, greater than 100 µM for the second.

CCOC(=O)c1nc2ccc(C(F)(F)F)cc2nc1NCc1cc(OC)c(OC)c(OC)c1 and CCOP(C)(=O)C(N)Cc1ccc(OC)c(OC)c1 (stereo not drawn) cannot be ordered by TGI: greater than 100 µM for the first, greater than 100 µM for the second.

CC(C)(C)OC(=O)NC(Cc1ccc(OCc2ccccc2)cn1)C(=O)N1CCCCC1 (stereo not drawn) and O=C1CC(=Nc2ccc(Cl)cc2)C(c2ccccc2)N1c1ccccc1 (stereo not drawn) cannot be ordered by TGI: greater than 100 µM for the first, greater than 100 µM for the second.

Compound CCOC(=O)/C=C(/C(=O)OCC)n1ccc(=O)n(Cc2cn(COCCOC(C)=O)nn2)c1=O has a TGI of 32 µM.

Test system: 786-0 renal
Assay: DTP human tumour cell line panel, 48 h

NP(=O)(Oc1c2occc2cc2ccc(=O)oc12)N(CCCl)CCCl (stereo not drawn) and C=CC(CCc1ccc(C(=O)OCC)cc1)c1c(N)nc(N)[nH]c1=O (stereo not drawn) cannot be ordered by TGI: greater than 100 µM for the first, greater than 100 µM for the second.

CCOC(=O)c1nc2ccc(C(F)(F)F)cc2nc1NCc1cc(OC)c(OC)c(OC)c1 and CCOP(C)(=O)C(N)Cc1ccc(OC)c(OC)c1 (stereo not drawn) cannot be ordered by TGI: greater than 100 µM for the first, greater than 100 µM for the second.

CC(C)(C)OC(=O)NC(Cc1ccc(OCc2ccccc2)cn1)C(=O)N1CCCCC1 (stereo not drawn) and O=C1CC(=Nc2ccc(Cl)cc2)C(c2ccccc2)N1c1ccccc1 (stereo not drawn) cannot be ordered by TGI: greater than 100 µM for the first, greater than 100 µM for the second.

CCOC(=O)/C=C(/C(=O)OCC)n1ccc(=O)n(Cc2cn(COCCOC(C)=O)nn2)c1=O was tested, and the TGI was greater than 100 µM.

Test system: KM12 colon
Assay: DTP human tumour cell line panel, 48 h

NP(=O)(Oc1c2occc2cc2ccc(=O)oc12)N(CCCl)CCCl (stereo not drawn) and C=CC(CCc1ccc(C(=O)OCC)cc1)c1c(N)nc(N)[nH]c1=O (stereo not drawn) cannot be ordered by TGI: greater than 100 µM for the first, greater than 100 µM for the second.

Going from CCOC(=O)c1nc2ccc(C(F)(F)F)cc2nc1NCc1cc(OC)c(OC)c(OC)c1 to CCOC(=O)/C=C(/C(=O)OCC)n1ccc(=O)n(Cc2cn(COCCOC(C)=O)nn2)c1=O, the TGI falls from greater than 100 µM to 35.9 µM.

CC(C)(C)OC(=O)NC(Cc1ccc(OCc2ccccc2)cn1)C(=O)N1CCCCC1 (stereo not drawn) and O=C1CC(=Nc2ccc(Cl)cc2)C(c2ccccc2)N1c1ccccc1 (stereo not drawn) cannot be ordered by TGI: greater than 100 µM for the first, greater than 100 µM for the second.

Test system: K-562 leukemia
Assay: DTP human tumour cell line panel, 48 h

NP(=O)(Oc1c2occc2cc2ccc(=O)oc12)N(CCCl)CCCl (stereo not drawn) and C=CC(CCc1ccc(C(=O)OCC)cc1)c1c(N)nc(N)[nH]c1=O (stereo not drawn) cannot be ordered by TGI: greater than 100 µM for the first, greater than 100 µM for the second.

CC(C)(C)OC(=O)NC(Cc1ccc(OCc2ccccc2)cn1)C(=O)N1CCCCC1 (stereo not drawn) and O=C1CC(=Nc2ccc(Cl)cc2)C(c2ccccc2)N1c1ccccc1 (stereo not drawn) cannot be ordered by TGI: greater than 100 µM for the first, greater than 100 µM for the second.

CCOC(=O)/C=C(/C(=O)OCC)n1ccc(=O)n(Cc2cn(COCCOC(C)=O)nn2)c1=O and CCOP(C)(=O)C(N)Cc1ccc(OC)c(OC)c1 (stereo not drawn) cannot be ordered by TGI: greater than 100 µM for the first, greater than 100 µM for the second.

Test system: SNB-75 CNS
Assay: DTP human tumour cell line panel, 48 h

Going from CCOC(=O)c1nc2ccc(C(F)(F)F)cc2nc1NCc1cc(OC)c(OC)c(OC)c1 to CCOC(=O)/C=C(/C(=O)OCC)n1ccc(=O)n(Cc2cn(COCCOC(C)=O)nn2)c1=O, the TGI rises from 90.6 µM to greater than 100 µM.

For CC(C)(C)OC(=O)NC(Cc1ccc(OCc2ccccc2)cn1)C(=O)N1CCCCC1 (stereo not drawn), the TGI was 70.3 µM.

— PubChem BioAssay (NCI)
